Test results from PubChem BioAssay (NCI).
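Cells were grown in 96-well plates and exposed to each compound for 48 hours at five concentrations; endpoints were interpolated linearly between bracketing concentrations, or set to the highest concentration if not reached. Definition used: TGI = concentration required for complete inhibition of growth.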

Tests used:
Assay in all cases: NCI anticancer screen, dose series, 48 h
[1] = system: A498 renal
[2] = system: HOP-62 NSCLC
[3] = system: MALME-3M melanoma
[4] = system: T-47D breast
[5] = system: NCI-H522 lung
[6] = system: U251 CNS
[7] = system: BT-549 breast
[8] = system: OVCAR-4 ovarian
[9] = system: OVCAR-8 ovarian
[10] = system: MDA-N
[11] = system: SK-OV-3 ovarian
[12] = system: SF-268 CNS
[13] = system: UACC-62 melanoma
[14] = system: RXF 393 renal
[15] = system: RPMI-8226 leukemia
[16] = system: OVCAR-5 ovarian
[17] = system: MOLT-4 leukemia

| SMILES | TGI [1] [µM] | TGI [2] [µM] | TGI [3] [µM] | TGI [4] [µM] | TGI [5] [µM] | TGI [6] [µM] | TGI [7] [µM] | TGI [8] [µM] | TGI [9] [µM] | TGI [10] [µM] | TGI [11] [µM] | TGI [12] [µM] | TGI [13] [µM] | TGI [14] [µM] | TGI [15] [µM] | TGI [16] [µM] | TGI [17] [µM] |
| --- | --- | --- | --- | --- | --- | --- | --- | --- | --- | --- | --- | --- | --- | --- | --- | --- | --- |
| O=C1c2cccc3cccc(c23)C(=O)N1CCCNCCCCNCCCN1C(=O)c2cccc3cccc(c23)C1=O | 2.45 | 2.66 | 0.74 | 4.32 | 0.0803 | 1.22 | 3.02 | 1.93 | 2.24 | 1.47 | 6.65 | 0.605 | 1.44 | 0.698 | 0.179 | 2.44 |  |
| Cn1c(NN)nc(-c2ccc([N+](=O)[O-])cc2)c(C#N)c1=O |  | 27.1 | 29.7 | 30.9 | 29.9 | 30.8 | 25.5 | 30.8 | 42.3 | 24.9 | 28.2 | 31.1 | 29 | 28 | > 100 | 42.9 |  |
| C[C@]12CCC3c4ccc(O)cc4CC[C@H]3C1CC(=O)N(N)C2=O (stereo partly specified) | > 100 | > 100 | > 100 | > 100 | > 100 | > 100 | > 100 | > 100 | > 100 | > 100 | > 100 | > 100 | > 100 | > 100 |  | > 100 | > 100 |
| CSc1ccccc1P(c1ccccc1SC)c1ccccc1SC | > 100 | > 100 | > 100 | > 100 |  | > 100 | > 100 | > 100 | > 100 | > 100 | > 100 | > 100 | > 100 |  | > 100 | > 100 | > 100 |
| COc1cc(C2S/C(=C/c3ccccc3)C(=O)N2c2cc(Cl)ccc2Cl)cc(OC)c1OC (stereo unspecified) | > 100 | > 100 | > 100 | > 100 | 50.4 | > 100 | > 100 |  | > 100 | > 100 | > 100 | 53.1 | > 100 | > 100 | > 100 |  | > 100 |
| COc1cc(O)c2c(=O)c(OC)c(-c3ccc4c(c3)OCO4)oc2c1 | > 89.3 | > 63.1 | > 100 | > 100 | > 100 | 30.2 | > 30 |  | > 100 | > 100 | 81 | 40 | > 100 | > 100 | > 100 | > 100 | > 100 |
| CC1=C(C(=O)N[C@@H](Cc2ccccc2)C(=O)O)N2C(=O)[C@@H](NC(=O)[C@@H](N)CC(C)C)[C@H]2SC1 | > 100 |  | > 100 | > 100 | > 100 | > 100 | > 100 | > 100 | > 100 | > 100 |  | > 100 | > 100 | > 100 | > 100 | > 100 | > 100 |
| CC1=NN(c2nc(N)nc(/C(C#N)=C/c3ccc([N+](=O)[O-])o3)n2)C(C)(C)C1 | 32.6 | 31.3 | 4.23 | 7.05 |  | 11.3 | 9.24 | 25.7 | 8.91 | > 100 | > 52.3 | 16.2 | 5.31 | 3.21 | > 22.8 | 3.22 | 6.12 |
| C=C1CC(Cn2ccc(=O)[nH]c2=O)(c2ccc(-c3ccccc3)cc2)OC1=O (stereo unspecified) | 16.1 | 40.2 | 3.42 | 6.45 | 2.39 | 25 | 3.73 |  | 11.1 | 3.5 | 21.1 | 46.3 | 1.88 |  | 1.29 | 24.7 | 5.26 |
| CCOC(=O)[C@@H]1C[C@H]1c1ccc(O)c(O)c1 |  | > 100 | > 100 | 88.1 | 47.2 | > 100 | > 100 |  | > 100 | 37.8 | > 100 | > 100 | 34.9 | 87.4 | > 100 | > 100 | > 100 |
| Oc1[nH]c2ccccc2c1N=NC(=S)N1CCCCC1 | 1.99 | 3.83 | 2.2 | 20 | 15.5 | 7.83 |  | 4.48 | 1.8 | 15.5 | 7.62 | 14.3 | 4.01 | 2.65 | 2.43 | 21.1 | 2.15 |
| c1cc(-c2csc(-c3ccsc3)c2)cs1 | > 100 | > 100 |  | > 100 |  | > 100 | > 100 | > 100 | > 100 | > 100 | > 100 | > 100 | > 100 | > 100 | > 100 | > 100 | > 100 |
| CC(NC(=O)C(OC(=O)C(C)NC(=O)OC(C)(C)C)C(C)C)C(=O)OC(C(=O)O)C(C)C (stereo unspecified) |  | > 100 | > 100 | > 100 | > 100 | > 100 | > 100 |  | > 100 | > 100 | > 100 | > 100 | > 100 | > 100 | > 100 | > 100 | > 100 |
| COc1ccc(OC)c([N+](=O)[O-])c1-c1nc2sccn2c1/C=N/N=C(N)N | > 100 | > 100 | > 100 | > 100 | > 100 | > 100 | > 100 |  | > 100 | > 100 | > 100 | > 100 | > 100 | > 100 | > 100 | > 100 | 69.5 |
